Activity calls are given as the source filed them. The rule behind the calls is not given here.
Key:
AD293 [1] = assay: Activation of human Slo G803D/N806K mutant expressed in human AD293 cells assessed as initial velocity of channel activation at 6 uM measured at 2 secs interval for 4 secs by FluxOR based fluorescence assay; assay type: cell-based; settings: filed as activator, time 4.0 sec
AD293 [2] = assay: Activation of human Slo G803D/N806K mutant expressed in human AD293 cells assessed as increase in channel activity by measuring change in relative fluorescence unit at 6 uM measured at 2 secs interval for 80 secs by FluxOR based fluorescence assay; assay type: cell-based; settings: filed as activator, time 80.0 sec
[3] = (§1) Activation of human Slo G803D/N806K mutant expressed in human AD293 cells measured at 2 secs interval for 120 secs by FluxOR based fluorescence assay; assay type: cell-based
[4] = Stability in human liver microsomes assessed as parent compound remaining at 1 uM measured after 30 mins in presence of NADPH regeneration system by LC-MS/MS analysis; assay type: ADME, Microsome; settings: read-out: Stability
[5] = Clearance in Sprague-Dawley rat at 5 mg/kg, iv by LC-MS analysis; assay type: ADME, organism-based; settings: in vivo
[6] = AUC (0 to 8 hrs) in Sprague-Dawley rat at 5 mg/kg, iv by LC-MS analysis; assay type: ADME, organism-based; set-up: time < 8 hr, dose 5 mg/kg, route iv; settings: in vivo
[7] = Cmax in Sprague-Dawley rat at 10 mg/kg, po by LC-MS analysis; assay type: ADME, organism-based; set-up: dose 10 mg/kg, route po; settings: in vivo
[8] = AUC (infinity) in Sprague-Dawley rat at 5 mg/kg, iv by LC-MS analysis; assay type: ADME, organism-based; set-up: time infinity, dose 5 mg/kg, route iv; settings: in vivo
[9] = Volume of distribution at steady state in Sprague-Dawley rat at 5 mg/kg, iv by LC-MS analysis; assay type: ADME, organism-based; settings: in vivo, read-out: Vdss
[10] = Tmax in Sprague-Dawley rat at 10 mg/kg, po by LC-MS analysis; assay type: ADME, organism-based; settings: in vivo
[11] = AUC (0 to 8 hrs) in Sprague-Dawley rat at 10 mg/kg, po by LC-MS analysis; assay type: ADME, organism-based; set-up: time < 8 hr, dose 10 mg/kg, route po; settings: in vivo
[12] = target: Calcium-activated potassium channel subunit alpha-1 (Rattus norvegicus) (UniProt Q62976); assay: Activation of rat Slo expressed in Xenopus laevis oocytes assessed as shortened channel opening 10 uM with 100 mV holding potential by patch-clamp electrophysiological method; assay type: cell-based; settings: Oocyte, filed as activator
[13] = target: Calcium-activated potassium channel subunit alpha-1 (Rattus norvegicus) (UniProt Q62976); assay: Activation of rat Slo expressed in Xenopus laevis oocytes assessed as delayed channel closing 10 uM with 100 mV holding potential by patch-clamp electrophysiological method; assay type: cell-based; settings: Oocyte, filed as activator
AD293 [14] = assay: as §1; assay type: cell-based; settings: filed as activator, time 120.0 sec, DDE = dose-dependent effect
Rattus norvegicus [15] = assay: Inhibition of overactive bladder activity in spontaneously hypertensive rat assessed as reduction in voiding frequency at 50 mg/kg, po measured after 3 hrs relative to control; assay type: functional
[16] = Protein binding in human plasma at 5 uM measured after 4 hrs by LC-MS/MS analysis; assay type: ADME, cell-free; settings: read-out: PPB
Rattus norvegicus [17] = assay: Inhibition of overactive bladder activity in spontaneously hypertensive rat assessed as reduction in voiding frequency at 10 mg/kg, po measured after 3 hrs; assay type: functional, organism-based
[18] = AUC (infinity) in Sprague-Dawley rat at 10 mg/kg, po by LC-MS analysis; assay type: ADME, organism-based; set-up: time infinity, dose 10 mg/kg, route po; settings: in vivo
[19] = Protein binding in rat plasma at 5 uM measured after 4 hrs by LC-MS/MS analysis; assay type: ADME, cell-free; settings: read-out: PPB
AD293 [20] = assay: Activation of human Slo G803D/N806K mutant expressed in human AD293 cells assessed as increase in initial velocity at 1 uM measured at 2 secs interval for 120 secs by FluxOR based fluorescence assay; assay type: cell-based; settings: filed as activator, time 120.0 sec
[21] = target: Calcium-activated potassium channel subunit alpha-1 (Rattus norvegicus) (UniProt Q62976); assay: Activation of rat Slo expressed in Xenopus laevis oocytes assessed as increase in intracellular maximum conductance at 10 uM with 100 mV holding potential by patch-clamp electrophysiological method relative to control; assay type: cell-based; settings: Oocyte, filed as activator
[22] = target: Calcium-activated potassium channel subunit alpha-1 (Rattus norvegicus) (UniProt Q62976); assay: Activation of rat Slo expressed in Xenopus laevis oocytes assessed as increase in maximum conductance at 10 uM with 100 mV holding potential by patch-clamp electrophysiological method relative to control; assay type: cell-based; settings: Oocyte, filed as activator
[23] = Half life in Sprague-Dawley rat at 5 mg/kg, iv by LC-MS analysis; assay type: ADME, organism-based; settings: in vivo
[24] = Half life in Sprague-Dawley rat at 10 mg/kg, po by LC-MS analysis; assay type: ADME, organism-based; settings: in vivo
[25] = target: Calcium-activated potassium channel subunit alpha-1 (Rattus norvegicus) (UniProt Q62976); assay: Activation of rat Slo expressed in Xenopus laevis oocytes assessed as shift in voltage at half activation at 10 uM with 100 mV holding potential by patch-clamp electrophysiological method; assay type: cell-based; settings: Oocyte, filed as activator
AD293 [26] = assay: Activation of human Slo G803D/N806K mutant expressed in human AD293 cells assessed as increase in initial velocity at 5 uM measured at 2 secs interval for 4 secs by FluxOR based fluorescence assay; assay type: cell-based; settings: filed as activator, time 4.0 sec
[27] = target: Calcium-activated potassium channel subunit alpha-1 (Rattus norvegicus) (UniProt Q62976); assay: Activation of rat Slo expressed in Xenopus laevis oocytes at 10 uM with 100 mV holding potential by patch-clamp electrophysiological method; assay type: cell-based; settings: Oocyte, filed as activator
[28] = target: Calcium-activated potassium channel subunit alpha-1 (Rattus norvegicus) (UniProt Q62976); assay: Activation of rat Slo expressed in Xenopus laevis oocytes assessed as intracellular shift in voltage at half activation at 10 uM with 100 mV holding potential by patch-clamp electrophysiological method; assay type: cell-based; settings: Oocyte, filed as activator
[29] = Oral bioavailability in Sprague-Dawley rat at 10 mg/kg by LC-MS analysis; assay type: ADME, organism-based; settings: in vivo

Chain of Calcium-activated potassium channel subunit alpha-1 (Rattus norvegicus) (Q62976 whole entry): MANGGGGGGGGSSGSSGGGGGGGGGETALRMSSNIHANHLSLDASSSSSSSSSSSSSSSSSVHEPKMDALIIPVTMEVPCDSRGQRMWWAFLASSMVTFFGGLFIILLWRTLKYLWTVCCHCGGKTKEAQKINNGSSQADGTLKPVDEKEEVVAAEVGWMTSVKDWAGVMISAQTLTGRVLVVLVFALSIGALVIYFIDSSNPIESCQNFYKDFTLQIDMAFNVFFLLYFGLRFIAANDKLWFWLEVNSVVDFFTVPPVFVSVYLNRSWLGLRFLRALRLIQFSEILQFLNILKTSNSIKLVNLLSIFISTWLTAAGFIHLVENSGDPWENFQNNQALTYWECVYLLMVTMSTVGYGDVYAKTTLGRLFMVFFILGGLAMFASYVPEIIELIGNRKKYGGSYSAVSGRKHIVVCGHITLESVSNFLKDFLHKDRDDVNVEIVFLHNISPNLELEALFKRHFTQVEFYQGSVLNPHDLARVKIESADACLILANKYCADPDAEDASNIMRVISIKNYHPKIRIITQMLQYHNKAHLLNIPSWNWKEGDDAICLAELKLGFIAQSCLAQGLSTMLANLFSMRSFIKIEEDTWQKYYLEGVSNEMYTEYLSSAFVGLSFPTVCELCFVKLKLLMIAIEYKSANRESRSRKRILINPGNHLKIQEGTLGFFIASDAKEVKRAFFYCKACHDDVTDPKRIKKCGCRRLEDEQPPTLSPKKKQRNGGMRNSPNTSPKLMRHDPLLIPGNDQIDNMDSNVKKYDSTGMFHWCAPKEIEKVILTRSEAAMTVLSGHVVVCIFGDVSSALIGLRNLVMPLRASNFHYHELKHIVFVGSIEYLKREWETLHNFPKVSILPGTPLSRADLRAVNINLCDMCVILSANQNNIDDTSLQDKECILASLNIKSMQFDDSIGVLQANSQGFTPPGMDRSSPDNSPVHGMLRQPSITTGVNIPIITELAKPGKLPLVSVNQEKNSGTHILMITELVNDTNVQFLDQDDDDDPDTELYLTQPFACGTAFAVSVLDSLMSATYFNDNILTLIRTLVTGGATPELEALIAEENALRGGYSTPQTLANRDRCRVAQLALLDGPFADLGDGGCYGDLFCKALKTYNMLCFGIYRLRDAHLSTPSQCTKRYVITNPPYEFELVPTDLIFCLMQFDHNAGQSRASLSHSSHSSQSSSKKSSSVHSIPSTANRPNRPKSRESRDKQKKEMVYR

## O=C(Nc1ccccc1)c1sc(=S)n2c1[nH]c(=O)c1ccccc12
AD293 [1]
  V0: 0.42 s⁻¹
AD293 [2]
  Activity: 1.03 RFU

## Cc1ccc(NC(=O)c2sc(=S)n3c2[nH]c(=O)c2cc(Br)ccc23)cc1
AD293 [1]
  V0: 0.71 s⁻¹
AD293 [2]
  Activity: 1.41 RFU

## O=C(NCc1ccccc1)c1sc(=S)n2c1[nH]c(=O)c1ccccc12
AD293 [1]
  V0: 0.26 s⁻¹
AD293 [2]
  Activity: 1.1 RFU

## COc1cccc(NC(=O)c2sc(=S)n3c2[nH]c(=O)c2cc(Br)ccc23)c1
AD293 [1]
  V0: 6 s⁻¹
[3]
  EC50: 6.6 µM
AD293 [2]
  Activity: 3.35 RFU

## Cc1cccc(NC(=O)c2sc(=S)n3c2[nH]c(=O)c2cc(Br)ccc23)c1
AD293 [1]
  V0: 9.77 s⁻¹
[3]
  EC50: 5.74 µM
AD293 [2]
  Activity: 4.98 RFU

## O=C(Nc1cccc(F)c1)c1sc(=S)n2c1[nH]c(=O)c1cc(Br)ccc12
AD293 [1]
  V0: 12.6 s⁻¹
[4]
  remaining at 0.5 h, 1 µM: 56%
[3]
  EC50: 1.14 µM
AD293 [2]
  Activity: 2.85 RFU

## O=C(Nc1ccccc1)c1sc(=S)n2c1[nH]c(=O)c1ccc(Br)cc12
AD293 [1]
  V0: 0.56 s⁻¹
AD293 [2]
  Activity: 1.25 RFU

## FC(F)(F)c1cc(NC(=S)Nc2ccc(Br)cc2-c2nnn[nH]2)cc(C(F)(F)F)c1
AD293 [1]
  V0: 1.63 s⁻¹
[3]
  EC50: 14.9 µM
AD293 [2]
  Activity: 1.86 RFU

## O=C(Nc1ccccc1)c1sc(=S)n2c1[nH]c(=O)c1ccc(Cl)cc12
AD293 [1]
  V0: 0.84 s⁻¹
AD293 [2]
  Activity: 1.56 RFU

## O=C(Nc1ccccc1)c1sc(=S)n2c1[nH]c(=O)c1cc(Br)ccc12
AD293 [1]
  V0: 5.51 s⁻¹
[3]
  EC50: 12.3 µM
AD293 [2]
  Activity: 3.83 RFU

## O=C(Nc1cccc(O)c1)c1sc(=S)n2c1[nH]c(=O)c1cc(Br)ccc12
AD293 [1]
  V0: 4.03 s⁻¹
[3]
  EC50: 11.2 µM
AD293 [2]
  Activity: 4.88 RFU

## NC(=O)c1sc(=S)n2c1[nH]c(=O)c1ccccc12
AD293 [1]
  V0: 0.32 s⁻¹
AD293 [2]
  Activity: 0.96 RFU

## O=C(Nc1cccc(OC(F)(F)F)c1)c1sc(=S)n2c1[nH]c(=O)c1cc(Br)ccc12
AD293 [1]
  V0: 14.8 s⁻¹
[3]
  EC50: 3.82 µM
AD293 [2]
  Activity: 4.37 RFU

## Cc1ccc2c(=O)[nH]c3c(C(=O)Nc4ccccc4)sc(=S)n3c2c1
AD293 [1]
  V0: 0.23 s⁻¹
AD293 [2]
  Activity: 1.06 RFU

## O=C(Nc1cccc(C(F)(F)F)c1)c1sc(=S)n2c1[nH]c(=O)c1cc(Br)ccc12
[5]
  clearance: 4.5 mL/min/kg
[6]
  AUC: 26.8 uM.hr/ml
AD293 [1]
  V0: 16.8 s⁻¹
[4]
  remaining at 0.5 h, 1 µM: 76%
[7]
  Cmax: 1190 ng/mL
[8]
  AUC: 30.63 uM.hr/ml
[9]
  Vd: 1.83 L/kg
[10]
  Tmax: 6.67 h
[11]
  AUC: 13.64 uM.hr/ml
[12]
  Activity: Active
[13]
  Activity: Active
[3]
  EC50: 2.89 µM
AD293 [14]
  Activity: Dde
Rattus norvegicus [15]
  inhibition in vivo at 50 mg/kg: 33%
[16]
  fraction unbound at 4 h, 5 µM: < 0.03
Rattus norvegicus [17]
  inhibition: Active
[18]
  AUC: 17.2 uM.hr/ml
[19]
  fraction unbound at 4 h, 5 µM: < 0.03
AD293 [20]
  Activity: Active
[21]
  fold change (FC): 1.3
[22]
  fold change (FC): 1.5
AD293 [2]
  Activity: 3.35 RFU
[23]
  half-life: 6.59 h
[24]
  half-life: 8.5 h
[25]
  delta(V1/2): 42.6 mV
AD293 [26]
  Activity: Active
[27]
  Activity: Active
[28]
  delta(V1/2): 7.5 mV
[29]
  bioavailability: 25.4%

## Cc1ccc2c(c1)c(=O)[nH]c1c(C(=O)Nc3ccccc3)sc(=S)n12
AD293 [1]
  V0: 0.32 s⁻¹
AD293 [2]
  Activity: 1.16 RFU

## O=C(Nc1cc(C(F)(F)F)cc(C(F)(F)F)c1)c1sc(=S)n2c1[nH]c(=O)c1cc(Br)ccc12
AD293 [1]
  V0: 2.08 s⁻¹
[3]
  EC50: 17.3 µM
AD293 [2]
  Activity: 2.28 RFU

## O=C(O)c1sc(=S)n2c1[nH]c(=O)c1ccccc12
AD293 [1]
  V0: 0.38 s⁻¹
[3]
  EC50: 12.7 µM
AD293 [2]
  Activity: 1.38 RFU

## O=C(Nc1cccc(Cl)c1)c1sc(=S)n2c1[nH]c(=O)c1cc(Br)ccc12
AD293 [1]
  V0: 16.1 s⁻¹
[3]
  EC50: 4.85 µM
AD293 [2]
  Activity: 3.56 RFU

## O=C(Nc1ccccc1)c1sc(=S)n2c1[nH]c(=O)c1cc(Cl)ccc12
AD293 [1]
  V0: 0.38 s⁻¹
AD293 [2]
  Activity: 1.18 RFU

## Cc1ccccc1NC(=O)c1sc(=S)n2c1[nH]c(=O)c1cc(Br)ccc12
AD293 [1]
  V0: 9.4 s⁻¹
[3]
  EC50: 4.6 µM
AD293 [2]
  Activity: 3.68 RFU

— ChEMBL document CHEMBL5143743, “Novel Thioxothiazolo[3,4-a]quinazolin-5(4H)-one Derivatives as BKCa Channel Activators for Urinary Incontinence” (ACS Med Chem Lett, 2022)
